Data taken from PubChem BioAssay (NCI).
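A five-concentration, 48-hour dose response in 96-well plates underlies each endpoint, interpolated linearly between surrounding concentrations. The concentration for full growth arrest is given as TGI.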

Assays:
Assay in all cases: NCI-60 cell line screen, 48 h
[1] = system: HCT-15 colon
[2] = system: 786-0 renal
[3] = system: ACHN renal
[4] = system: COLO 205 colon
[5] = system: SW-620 colon
[6] = system: NCI-H460 lung
[7] = system: UACC-257 melanoma
[8] = system: TK-10 renal
[9] = system: SNB-75 CNS
[10] = system: SK-OV-3 ovarian
[11] = system: M14 melanoma
[12] = system: HOP-62 NSCLC
[13] = system: A498 renal
[14] = system: XF 498 CNS
[15] = system: DLD-1 colon
[16] = system: MOLT-4 leukemia
[17] = system: KM12 colon
[18] = system: SK-MEL-2 melanoma
[19] = system: RXF-631 renal
[20] = system: SF-295 CNS
[21] = system: CAKI-1 renal
[22] = system: SNB-19 CNS
[23] = system: HL-60(TB) leukemia
[24] = system: LXFL 529 NSCLC
[25] = system: NCI-H522 lung
[26] = system: DMS 114 small cell lung
[27] = system: SK-MEL-5 melanoma
[28] = system: HCC-2998 colon
[29] = system: HOP-92 NSCLC
[30] = system: SN12C renal
[31] = system: RXF 393 renal
[32] = system: OVCAR-4 ovarian
[33] = system: OVCAR-5 ovarian
[34] = system: HCT-116 colon
[35] = system: HT29 colon
[36] = system: LOX IMVI melanoma
[37] = system: A549 NSCLC
[38] = system: NCI-H226 lung
[39] = system: SR leukemia
[40] = system: SF-268 CNS
[41] = system: RPMI-8226 leukemia
[42] = system: SK-MEL-28 melanoma
[43] = system: MALME-3M melanoma
[44] = system: DMS 273 small cell lung
[45] = system: NCI-H23 lung
[46] = system: M19-MEL melanoma
[47] = system: UACC-62 melanoma
[48] = system: CCRF-CEM leukemia
[49] = system: KM20L2 colon
[50] = system: IGROV1 ovarian
[51] = system: SF-539 CNS
[52] = system: U251 CNS
[53] = system: K-562 leukemia
[54] = system: EKVX NSCLC
[55] = system: SNB-78 CNS
[56] = system: UO-31 renal
[57] = system: OVCAR-3 ovarian
[58] = system: OVCAR-8 ovarian

In the case of `O=C(NN1C(=O)CS(=O)(=O)C1c1cccc(F)c1)c1ccncc1` (stereo unspecified), the TGI [1] is reported as greater than 100 µM, the TGI [2] is reported as greater than 100 µM and the TGI [3] is reported as greater than 100 µM. The TGI [4] was greater than 100 µM, the TGI [5] was greater than 100 µM and the TGI [6] was greater than 100 µM. For the same compound, the TGI [7] was greater than 100 µM, the TGI [8] was greater than 100 µM and the TGI [9] was greater than 100 µM. It also gave a TGI [10] greater than 100 µM, a TGI [11] greater than 100 µM and a TGI [12] greater than 100 µM. The TGI [13] was greater than 100 µM, the TGI [14] was greater than 100 µM and the TGI [15] was greater than 100 µM. For the same compound, the TGI [16] was greater than 100 µM, the TGI [17] was greater than 100 µM and the TGI [18] was greater than 100 µM. The TGI [19] was greater than 100 µM, the TGI [20] was greater than 100 µM and the TGI [21] was greater than 100 µM. The TGI [22] was greater than 100 µM, the TGI [23] was greater than 100 µM and the TGI [24] was greater than 100 µM. It also gave a TGI [25] greater than 100 µM, a TGI [26] greater than 100 µM and a TGI [27] greater than 100 µM. It also gave a TGI [28] greater than 100 µM, a TGI [29] greater than 100 µM and a TGI [30] greater than 100 µM. For the same compound, the TGI [31] was greater than 100 µM, the TGI [32] was greater than 100 µM and the TGI [33] was greater than 100 µM. It also gave a TGI [34] greater than 100 µM, a TGI [35] greater than 100 µM and a TGI [36] greater than 100 µM. It also gave a TGI [37] greater than 100 µM, a TGI [38] greater than 100 µM and a TGI [39] greater than 100 µM. It also gave a TGI [40] greater than 100 µM, a TGI [41] greater than 100 µM and a TGI [42] greater than 100 µM. For the same compound, the TGI [43] was greater than 100 µM and the TGI [44] was greater than 100 µM.
`CCOC(=O)C(=O)Nc1ccc(C)c(C)c1` was tested, and the TGI [45] was greater than 100 µM, the TGI [46] was greater than 100 µM and the TGI [1] was greater than 55.4 µM. For the same compound, the TGI [47] was greater than 100 µM, the TGI [2] was greater than 100 µM and the TGI [3] was greater than 100 µM. For the same compound, the TGI [4] was 32.2 µM, the TGI [5] was 20 µM and the TGI [6] was greater than 100 µM. The TGI [7] was greater than 100 µM, the TGI [8] was greater than 100 µM and the TGI [9] was greater than 100 µM. For the same compound, the TGI [48] was greater than 100 µM, the TGI [10] was greater than 100 µM and the TGI [11] was greater than 100 µM. It also gave a TGI [12] greater than 100 µM, a TGI [13] greater than 100 µM and a TGI [15] greater than 100 µM. It also gave a TGI [16] greater than 100 µM, a TGI [17] greater than 93.8 µM and a TGI [18] greater than 100 µM. The TGI [19] was greater than 100 µM, the TGI [20] was greater than 100 µM and the TGI [49] was greater than 100 µM. It also gave a TGI [21] greater than 100 µM, a TGI [22] greater than 100 µM and a TGI [50] greater than 100 µM. The TGI [23] was greater than 100 µM, the TGI [24] was greater than 100 µM and the TGI [25] was greater than 100 µM. For the same compound, the TGI [26] was greater than 56.5 µM, the TGI [27] was greater than 100 µM and the TGI [28] was greater than 100 µM. For the same compound, the TGI [30] was greater than 100 µM, the TGI [31] was greater than 100 µM and the TGI [32] was greater than 100 µM. The TGI [51] was greater than 100 µM, the TGI [52] was greater than 100 µM and the TGI [33] was greater than 100 µM. The TGI [34] was greater than 100 µM, the TGI [35] was greater than 100 µM and the TGI [36] was greater than 100 µM. For the same compound, the TGI [37] was greater than 100 µM, the TGI [38] was greater than 100 µM and the TGI [40] was greater than 100 µM. The TGI [53] was greater than 100 µM, the TGI [41] was greater than 100 µM and the TGI [42] was greater than 100 µM. The TGI [43] was greater than 100 µM, the TGI [54] was greater than 100 µM and the TGI [55] was greater than 100 µM. For the same compound, the TGI [56] was greater than 100 µM and the TGI [44] was greater than 100 µM.
`O=C1CCCCCCCCCCC(=O)N2CCOCCOCCN1Cc1cccc(n1)C2` showed a TGI [45] greater than 100 µM, a TGI [46] greater than 100 µM and a TGI [57] greater than 100 µM. The TGI [1] was greater than 100 µM, the TGI [47] was greater than 100 µM and the TGI [2] was greater than 100 µM. It also gave a TGI [3] greater than 100 µM, a TGI [4] greater than 100 µM and a TGI [5] greater than 100 µM. The TGI [6] was greater than 100 µM, the TGI [7] was greater than 100 µM and the TGI [8] was greater than 100 µM. For the same compound, the TGI [9] was greater than 100 µM, the TGI [48] was greater than 100 µM and the TGI [10] was greater than 100 µM. It also gave a TGI [11] greater than 100 µM, a TGI [12] greater than 100 µM and a TGI [13] greater than 100 µM. For the same compound, the TGI [15] was greater than 100 µM, the TGI [16] was greater than 100 µM and the TGI [58] was greater than 100 µM. It also gave a TGI [17] greater than 100 µM, a TGI [18] greater than 100 µM and a TGI [19] greater than 100 µM. For the same compound, the TGI [20] was greater than 100 µM, the TGI [49] was greater than 100 µM and the TGI [21] was greater than 100 µM. It also gave a TGI [22] greater than 100 µM, a TGI [50] greater than 100 µM and a TGI [24] greater than 100 µM. It also gave a TGI [25] greater than 100 µM, a TGI [26] greater than 100 µM and a TGI [27] greater than 100 µM. It also gave a TGI [28] greater than 100 µM, a TGI [30] greater than 100 µM and a TGI [31] greater than 100 µM. It also gave a TGI [32] greater than 100 µM, a TGI [51] greater than 100 µM and a TGI [52] greater than 100 µM. It also gave a TGI [33] greater than 100 µM, a TGI [34] greater than 100 µM and a TGI [35] greater than 100 µM. The TGI [36] was greater than 100 µM, the TGI [37] was greater than 100 µM and the TGI [38] was greater than 100 µM. The TGI [40] was greater than 100 µM, the TGI [53] was greater than 100 µM and the TGI [41] was greater than 100 µM. For the same compound, the TGI [42] was greater than 100 µM, the TGI [43] was greater than 100 µM and the TGI [54] was greater than 100 µM. For the same compound, the TGI [55] was greater than 100 µM, the TGI [56] was greater than 100 µM and the TGI [44] was greater than 100 µM.
